Marks after values point to notes of the source that are not given here.
System: Mouse Kupffer cell
Experiment: Phagocytosis assay of Kupffer cell (FITC-beads ingestion)
Format: cell-based
Conditions: relative to control (2% FCS) = 1
Experimental: C57BL6/j mice were intraperitoneally (ip) injected with a mixture of Rompun® xylazine anesthesia and ketamin (S-(+)-ketamine) anesthesia mixed at a ratio of 1:3. The central vein of each mouse was cannulated with a polyethylene catheter, and the liver tissue was perfused with 10 ml Ca^2+-free HBSS buffer for 10 minutes at a perfusion rate of 1 ml/min, and HBSS buffer containing 0.05% collagenase type IV for 10 minutes at the perfusion rate of 1 mL/min to soften the liver tissue. The softened liver tissue was excised, rinsed and cut open by a pair of forceps to release cell suspension from the liver tissue. After the connective tissue was detached, the cell suspension was filtered with a #53 nylon mesh and centrifuged at 30 g for 3 minutes. The cell suspension was then centrifuged at 600 g for 5 minutes. The supernatant was discarded and the cell pellet was resuspended in 15 mL RBC lysis buffer and allowed a reaction to take place for 2 minutes. The cell suspension was added with 15 mL of RPMI 1640 medium and centrifuged, and the cell pellet was resuspended in 5 mL of RPMI 1640 medium and layered on top of a Percoll™ solution consisting of 25% (v/v) Percoll™ density gradient medium. The cell solution was centrifuged, and the cell pellet containing enriched Kupffer cells was collected. The enriched Kupffer cells were washed with RPMI 1640 medium and resuspended in serum-free RPMI 1640 medium.
Kupffer cells were seeded (4×10^5 cells/well) in a 96-well culture plate and cultured in RPMI medium supplemented with 10% FCS, also known as 10% FCS RPMI medium hereinafter, for at least 24 hours. The medium was changed to 2% FCS RPMI medium added with PH of different concentrations (1000 μg/mL, 100 μg/mL, 10 μg/mL and 1 μg/mL). […] FluoroQuench™ dye (0.5 μL/well) was added to quench the fluorescence from the […] 1 μm-sized FITC-beads. The fluorescence of the ingested 1 μm-sized FITC-beads was measured with a cytofluorometer after one hour and normalized with the fluorescence of the control group to determine the relative phagocytosis index as shown in Table 2.

tuftsin
Mouse Kupffer cell Ingestion phagocytosis Index (1 μg/ml): 1.49**
Mouse Kupffer cell Ingestion phagocytosis Index (10 μg/ml): 1.2*
Mouse Kupffer cell Ingestion phagocytosis Index (100 μg/ml): 1.01

Reference: patent US7645463B2, “Method for treating diabetic vascular complications” (National Yang-Ming University, priority 2006, dated 2010)
